Reference: patent US10968215B2 (SHANGHAI HAIHE PHARMACEUTICAL CO., LTD., priority 2016, dated 2021)
Read-outs that look alike come from different tables or passages of the source.

Molecular target: PRC2 complex (EZH2 Y641F/EED/SUZ12/RbAp48/AEBP2) (Homo sapiens (Human), UniProt Q15910, Y641F)
Test: Activity of a compound to PRC2 complex (EZH2 Y641F), HTRF
[1] = read-out: IC50 (EZH2_Y641F), EZH2 Y641F PRC2 complex, HTRF, class symbols

Sequence of PRC2 complex (EZH2 Y641F/EED/SUZ12/RbAp48/AEBP2) (Q15910 whole entry Y641F): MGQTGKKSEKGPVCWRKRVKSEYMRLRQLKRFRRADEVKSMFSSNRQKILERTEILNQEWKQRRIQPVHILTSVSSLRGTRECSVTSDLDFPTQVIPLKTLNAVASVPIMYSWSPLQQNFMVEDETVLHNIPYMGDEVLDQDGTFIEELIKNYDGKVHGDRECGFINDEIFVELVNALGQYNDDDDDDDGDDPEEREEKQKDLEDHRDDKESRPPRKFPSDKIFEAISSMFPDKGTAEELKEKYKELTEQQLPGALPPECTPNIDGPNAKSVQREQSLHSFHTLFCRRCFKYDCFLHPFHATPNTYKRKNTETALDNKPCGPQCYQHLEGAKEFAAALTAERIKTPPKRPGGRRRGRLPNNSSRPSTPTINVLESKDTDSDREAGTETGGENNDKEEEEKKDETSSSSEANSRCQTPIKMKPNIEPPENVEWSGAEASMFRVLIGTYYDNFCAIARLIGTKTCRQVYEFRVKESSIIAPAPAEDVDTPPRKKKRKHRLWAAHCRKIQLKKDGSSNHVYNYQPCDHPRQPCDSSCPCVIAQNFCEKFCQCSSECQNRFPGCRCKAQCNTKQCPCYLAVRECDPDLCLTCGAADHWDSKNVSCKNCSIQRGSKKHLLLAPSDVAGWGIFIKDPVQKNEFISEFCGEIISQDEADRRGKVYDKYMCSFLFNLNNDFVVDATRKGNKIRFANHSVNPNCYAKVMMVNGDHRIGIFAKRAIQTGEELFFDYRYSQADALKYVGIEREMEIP
Sequence of PRC2 complex (EZH2 Y641F/EED/SUZ12/RbAp48/AEBP2) (O75530 whole entry partner): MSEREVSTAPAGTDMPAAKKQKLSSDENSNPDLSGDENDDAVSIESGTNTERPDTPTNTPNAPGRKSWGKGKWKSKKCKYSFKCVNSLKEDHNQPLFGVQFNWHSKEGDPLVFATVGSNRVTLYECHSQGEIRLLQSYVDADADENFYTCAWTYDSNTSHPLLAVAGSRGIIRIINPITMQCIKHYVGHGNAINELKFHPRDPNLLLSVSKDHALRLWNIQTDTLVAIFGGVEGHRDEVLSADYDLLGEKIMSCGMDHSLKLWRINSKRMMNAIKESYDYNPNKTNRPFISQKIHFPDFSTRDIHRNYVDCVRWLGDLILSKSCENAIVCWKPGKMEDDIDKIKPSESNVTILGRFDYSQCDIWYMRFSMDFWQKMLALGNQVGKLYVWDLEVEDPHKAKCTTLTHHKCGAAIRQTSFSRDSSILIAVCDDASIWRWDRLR
Sequence of PRC2 complex (EZH2 Y641F/EED/SUZ12/RbAp48/AEBP2) (Q15022 whole entry partner): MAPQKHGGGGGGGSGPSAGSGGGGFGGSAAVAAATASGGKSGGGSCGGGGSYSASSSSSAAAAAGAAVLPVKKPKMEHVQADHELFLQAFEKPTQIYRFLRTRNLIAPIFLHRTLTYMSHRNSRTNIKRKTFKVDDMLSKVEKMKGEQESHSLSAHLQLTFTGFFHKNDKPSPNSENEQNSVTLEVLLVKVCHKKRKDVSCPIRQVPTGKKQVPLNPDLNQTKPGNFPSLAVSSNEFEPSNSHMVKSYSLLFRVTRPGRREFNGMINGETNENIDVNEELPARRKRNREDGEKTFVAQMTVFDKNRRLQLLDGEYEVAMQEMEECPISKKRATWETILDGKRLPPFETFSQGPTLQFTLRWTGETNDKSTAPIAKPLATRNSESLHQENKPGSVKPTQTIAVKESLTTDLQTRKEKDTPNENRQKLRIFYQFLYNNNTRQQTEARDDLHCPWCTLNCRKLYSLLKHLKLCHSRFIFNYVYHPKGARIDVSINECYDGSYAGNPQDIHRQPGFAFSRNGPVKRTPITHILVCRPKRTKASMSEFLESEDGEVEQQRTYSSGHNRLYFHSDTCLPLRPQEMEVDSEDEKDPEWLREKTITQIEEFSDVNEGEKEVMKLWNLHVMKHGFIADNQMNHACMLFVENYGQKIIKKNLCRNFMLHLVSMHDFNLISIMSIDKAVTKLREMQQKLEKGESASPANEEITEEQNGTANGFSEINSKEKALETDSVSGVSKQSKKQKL
Sequence of PRC2 complex (EZH2 Y641F/EED/SUZ12/RbAp48/AEBP2) (Q09028 whole entry partner): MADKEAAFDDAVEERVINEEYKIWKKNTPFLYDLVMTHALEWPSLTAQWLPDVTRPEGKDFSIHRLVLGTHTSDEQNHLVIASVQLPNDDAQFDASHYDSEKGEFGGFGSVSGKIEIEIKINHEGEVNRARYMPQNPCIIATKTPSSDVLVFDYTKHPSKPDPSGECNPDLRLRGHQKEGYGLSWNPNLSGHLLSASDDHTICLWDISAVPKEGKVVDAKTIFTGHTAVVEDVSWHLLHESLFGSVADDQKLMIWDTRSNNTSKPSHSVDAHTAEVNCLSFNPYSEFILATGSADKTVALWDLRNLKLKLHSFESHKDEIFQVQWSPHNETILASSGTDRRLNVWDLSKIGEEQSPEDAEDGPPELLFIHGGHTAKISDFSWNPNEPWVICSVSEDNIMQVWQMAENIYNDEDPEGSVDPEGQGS
Sequence of PRC2 complex (EZH2 Y641F/EED/SUZ12/RbAp48/AEBP2) (Q6ZN18 whole entry partner): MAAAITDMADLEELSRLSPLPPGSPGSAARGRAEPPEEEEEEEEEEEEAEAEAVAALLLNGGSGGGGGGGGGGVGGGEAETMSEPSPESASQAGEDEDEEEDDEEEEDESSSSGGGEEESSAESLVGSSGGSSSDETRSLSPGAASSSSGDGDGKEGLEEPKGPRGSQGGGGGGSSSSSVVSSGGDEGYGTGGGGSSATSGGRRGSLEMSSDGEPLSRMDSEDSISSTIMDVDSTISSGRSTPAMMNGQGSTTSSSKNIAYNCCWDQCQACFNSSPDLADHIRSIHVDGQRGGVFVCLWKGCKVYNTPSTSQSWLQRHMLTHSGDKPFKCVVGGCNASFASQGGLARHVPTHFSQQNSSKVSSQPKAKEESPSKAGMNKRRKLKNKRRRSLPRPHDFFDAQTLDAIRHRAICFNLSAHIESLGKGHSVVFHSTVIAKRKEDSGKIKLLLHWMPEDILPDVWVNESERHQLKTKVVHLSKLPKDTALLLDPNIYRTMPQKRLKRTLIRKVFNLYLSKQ

Compound	IC50 [1] [nM]	also measured
Cc1cc(C)c(CNC(=O)c2cc3cc(-c4cc5c(s4)CCNC5)cn3c(C(C)N3CCOCC3)c2C)c(=O)[nH]1 (stereo not drawn) [Example 114, N-((4,6-dimethyl-2-oxo-1,2-dihydropyridin-3-yl)methyl)-6-methyl-5-(1-morpholinoethyl)-2-(4,5,6,7-tetrahydro[2,3-c]pyridin-2-yl)indolizine-7-carboxamide]	100 to 1000	
COc1ccc(F)c(-c2cc3cc(C(=O)NCc4c(C)cc(C)[nH]c4=O)c(C)c(C(C)N4CCOCC4)n3c2)c1 (stereo not drawn) [Example 124, N-((4,6-dimethyl-2-oxo-1,2-dihydropyridin-3-yl)methyl)-2-(2-fluoro-5-methoxyphenyl)-6-methyl-5-(1-morpholinoethyl)indolizine-7-carboxamide]	100 to 1000	
COc1cc(C)[nH]c(=O)c1CNC(=O)c1cc2cc(-c3nccn3C)cn2c(C(C)N2CCN(CC(F)(F)F)CC2)c1C (stereo not drawn) [Example 109, N-((4-methoxy-6-methyl-2-oxo-1,2-dihydropyridin-3-yl)methyl)-6-methyl-2-(1-methyl-1H-imidazol-2-yl)-5-(1-(4-(2,2,2-trifluoroethyl)piperazin-1-yl)ethyl)indolizine-7-carboxamide]		IC50: 100 to 1000 nM
Cc1cc(C)c(CNC(=O)c2cc3cc(-c4ccc(CN5CCOCC5)cc4)cn3c(C(C)N3CCOCC3)c2C)c(=O)[nH]1 (stereo not drawn) [Example 39, N-((4,6-dimethyl-2-oxo-1,2-dihydropyridin-3-yl)methyl)-6-methyl-5-(1-morphinolinylethyl)-2-(4-(morphinolinylmethyl)phenyl)indolizine-7-carboxamide]	< 100	
Cc1cc(C)c(CNC(=O)c2cc3cc(-c4ccc(N5CCOCC5)cc4)cn3c(C(C)N3CCOCC3)c2C)c(=O)[nH]1 (stereo not drawn) [Example 32, N-((4,6-dimethyl-2-oxo-1,2-dihydropyridin-3-yl)methyl)-6-methyl-5-(1-morphinolinylethyl)-2-(4-morphinolinylphenyl)indolizine-7-carboxamide]	< 100	
Cc1cc(C)c(CNC(=O)c2cc3cccn3c(C(C)Oc3ccc(N(C)C)cc3)c2C)c(=O)[nH]1 (stereo not drawn) [Example 22]	1000 to 10000	
Cc1cc(C)c(CNC(=O)c2cc3cc(-c4cnn(C5CCNCC5)c4)cn3c(C(C)N3CCOCC3)c2C)c(=O)[nH]1 (stereo not drawn) [Example 44, N-((4,6-dimethyl-2-oxo-1,2-dihydropyridin-3-yl)methyl)-6-methyl-5-(1-morphinolinylethyl)-2-(1-(piperidin-4-yl)-1H-pyrazol-4-yl)indolizine-7-carboxamide]	< 100	
COc1cc(C)[nH]c(=O)c1CNC(=O)c1cc2cc(-c3cncs3)cn2c(C(C)N2CCN(CC(F)(F)F)CC2)c1C (stereo not drawn) [Example 142, N-((4-methoxy-6-methyl-2-oxo-1,2-dihydropyridin-3-yl)methyl)-6-methyl-2-(thiazole-5-yl)-5-(1-(4-(2,2,2-trifluoroethyl)piperazin-1-yl)ethyl)indolizine-7-carboxamide]	< 100	
Cc1cc(C)c(CNC(=O)c2cc3cc(-c4cccnc4)cn3c(C(C)N3CCOCC3)c2C)c(=O)[nH]1 (stereo not drawn) [Example 33, N-((4,6-dimethyl-2-oxo-1,2-dihydropyridin-3-yl)methyl)-6-methyl-5-(1-morphinolinylethyl)-2-(pyridin-3-yl)indolizine-7-carboxamide]	< 100	
1-(2-chloropyridin-4-yl)-N-((4-methoxy-6-methyl-2-oxo-1,2-dihydropyridin-3-yl)methyl)-6-methyl-5-(1-(4-(2,2,2-trifluoroethyl)piperazin-1-yl)ethyl)indolizine-7-carboxamide [Compound 167]	< 100	
Cc1cc(C)c(CNC(=O)c2cc3cc(-c4cn(C)cn4)cn3c(C(C)N3CCOCC3)c2C)c(=O)[nH]1 (stereo not drawn) [Example 51, N-((4,6-dimethyl-2-oxo-1,2-dihydropyridin-3-yl)methyl)-6-methyl-5-(1-morphinolinylethyl)-2-(pyridin-2-yl)indolizine-7-carboxamide]	< 100	
(S)-1-Chloro-N-((4,6-dimethyl-2-oxo-1,2-dihydropyridin-3-yl)methyl)-6-methyl-5-(1-morphinolinylethyl)pyridazin-7-carboxamide or (R)-1-chloro-N-((4,6-dimethyl-2-oxo-1,2-dihydro)pyridin-3-yl)methyl)-6-methyl-5-(1-morphinolinylethyl)pyridazin-7-carboxamide [Example 28]	< 100	
Cc1cc(C)c(CNC(=O)c2cc3cc(-c4ccncc4)cn3c(C(C)N3CCC(N(C)C)CC3)c2C)c(=O)[nH]1 (stereo not drawn) [Example 93, N-((4,6-dimethyl-2-oxo-1,2-dihydropyridin-3-yl)methyl)-5-(1-(4-(dimethylamino)piperidine-1-yl)ethyl)-6-methyl-2-(pyridin-4-yl)indolizine-7-carboxamide]		IC50: < 100 nM
COc1cc(C)[nH]c(=O)c1CNC(=O)c1cc2c(-c3ccn[nH]3)ccn2c(C(C)N2CCOCC2)c1C (stereo not drawn) [Compound 153, N-((4-Methoxy-6-methyl-2-oxo-1,2-dihydropyridin-3-yl)methyl)-6-methyl-5-(1-morpholinylethyl)-1-(1H-pyrazol-5-yl)indolizine-7-carboxamide]		IC50 (read-out: IC50 (EZH2_Y641F), EZH2 Y641F PRC2 complex, HTRF, numeric values): 2.15 nM
Cc1cc(C)c(CNC(=O)c2cc3cc(Br)cn3c(C(C)N3CCC(N4CCCC4)CC3)c2C)c(=O)[nH]1 (stereo not drawn) [Example 145, 2-bromo-N-((4,6-dimethyl-2-oxo-1,2-dihydropyridin-3-yl)methyl)-6-methyl-5-(1-(4-(pyrrolidin-1-yl)piperidin-1-yl)ethyl)indolizine-7-carboxamide]	100 to 1000	

Now from value to compound, other results behind:

IC50 [1] [nM]	Compound	also measured
100 to 1000	N-((4,6-dimethyl-2-oxo-1,2-dihydropyridin-3-yl)methyl)-2-(4-((dimethylamino)methyl)phen yl))-6-methyl-5-(1-morpholinoethyl)indolizine-7-carboxamide [Example 75]	
< 100	COc1cc(C)[nH]c(=O)c1CNC(=O)c1cc2cc(-c3cncn3C)cn2c(C(C)N2CCC(N(C)C)CC2)c1C (stereo not drawn) [Example 135, 5-(1-(4-(dimethylamino)piperidin-1-yl)ethyl)-N-((4-methoxy-6-methyl-2-oxo-1,2-dihydropyridin-3-yl)methyl)-6-methyl-2-(1-methyl-1H-imidazol-5-yl)indolizine-7-carboxamide]	
< 100	Cc1cc(C)c(CNC(=O)c2cc3c(-c4ccccc4)ccn3c(C(C)N3CCOCC3)c2C)c(=O)[nH]1 (stereo not drawn) [Example 81]	
100 to 1000	CCN1CCN(C(C)c2c(C)c(C(=O)NCc3c(C)cc(C)[nH]c3=O)cc3cc(Br)cn23)CC1 (stereo not drawn) [Example 99, N-((4,6-dimethyl-2-oxo-1,2-dihydropyridin-3-yl)methyl)-6-methyl-5-(1-(4-ethylpiperazine)-1-ethyl)-2-bromoindolizine-7-carboxamide]	
< 100	N-((4,6-dimethyl-2-oxo-1,2-dihydropyridin-3-yl)methyl)-6-methyl-5-(1-morpholinylethyl)-2-(1-ethyl-1H-pyrazole)indolizine-7-carboxamide [Example 113]	
< 100	COc1cc(C)[nH]c(=O)c1CNC(=O)c1cc2c(-c3ccnc(Cl)c3)ccn2c([C@H](C)N2CCN(CC(F)(F)F)CC2)c1C (single isomer, unassigned) [Compound 169, (S)-1-(2-chloropyridin-4-yl)-N-((4-methoxy-6-methyl-2-oxo-1,2-dihydropyridine-3-yl)methyl)-6-methyl-5-(1-(4-(2,2,2-trifluoroethyl)piperazin-1-yl)ethyl)indolizine-7-carboxamide or (R) 1-(2-chloropyridin-4-yl)-N-((4-methoxy-6-methyl-2-oxo-1,2-dihydropyridine-3-yl)methyl)-6-methyl-5-(1-(4-(2,2,2-trifluoroethyl)piperazin-1-yl)ethyl)indolizine-7-carboxamide]	
< 100	COc1cc(C)[nH]c(=O)c1CNC(=O)c1cc2c(-c3ccc(C)nc3C)ccn2c(C(C)N2CCN(CC(F)(F)F)CC2)c1C (stereo not drawn) [Compound 176]	
< 100	COc1cc(-c2ccn3c(C(C)N4CCN(CC(F)(F)F)CC4)c(C)c(C(=O)NCc4c(OC)cc(C)[nH]c4=O)cc23)ccn1 (stereo not drawn) [Compound 193, N-((4-methoxy-6-methyl-2-oxo-1,2-dihydropyridin-3-yl)methyl)-1-(2-methoxypyridine-4-yl)-6-methyl-5-(1-(4-(2,2,2-trifluoroethyl)piperazin-1-yl)ethyl)indolizine-7-carboxamide]	
< 100	COc1cc(C)[nH]c(=O)c1CNC(=O)c1cc2c(-c3ccccc3)ccn2c(C(C)N2CCC(N(C)C)CC2)c1C (stereo not drawn) [Example 129, N-((4,6-dimethyl-2-oxo-1,2-dihydropyridin-3-yl)methyl)-5-(1-(4-(dimethylamine)piperidine-1-yl)ethyl)-6-methyl-1-(1-methyl-1H-pyrazol-5-yl)indolizine-7-carboxamide]	
100 to 1000	Cc1cc(C)c(CNC(=O)c2cc3cc(Br)cn3c(C(C)N3CCC(C#N)CC3)c2C)c(=O)[nH]1 (stereo not drawn) [Example 146, 2-bromo-5-(1-(4-cyanopiperidin-1-yl)ethyl)-N-((4,6-dimethyl-2-oxo-1,2-dihydropyridin-3-yl)methyl)-6-methylindolizine-7-carboxamide]	
< 100	COc1cc(C)[nH]c(=O)c1CNC(=O)c1cc2c(-c3ccccc3)ccn2c(C(C)N2CCOCC2)c1C (stereo not drawn) [Example 131, N-((4-methoxy-6-methyl-2-oxo-1,2-dihydropyridin-3-yl)methyl)-6-methyl-5-(1-morpholinylethyl)-1-phenylindolizine-7-carboxamide]	
< 100	COc1cc(C)[nH]c(=O)c1CNC(=O)c1cc2c(-c3ccn[nH]3)ccn2c(N(C)C2CCN(CC(F)(F)F)CC2)c1C [Compound 202, N-((4-methoxy-6-methyl-2-oxo-1,2-dihydropyridin-3-yl)methyl)-6-methyl-5-(methyl(1-(2,2,2-trifluoroethyl)piperidin-4-yl)amino)-1-(1H-pyrazol-5-yl)indolizine-7-carboxamide]	
